Reference: PMC9989937, “In-vitro antioxidant, lipoxygenase inhibitory, and in-vivo muscle relaxant potential of the extract and constituent isolated from Diospyros kaki (Japanese Persimmon)” (Heliyon, 2023)

Tests used:
[1] = target: T1, lipoxygenase (EC 1.13.11.12) Type 1 (soybean) (Glycine max, UniProt P08170); test: spectrophotometric lipoxygenase inhibition assay with linoleic acid substrate (positive control); type: biochemical
T1 construct: gene LOX1.1
T1 sequence (P08170 1-839): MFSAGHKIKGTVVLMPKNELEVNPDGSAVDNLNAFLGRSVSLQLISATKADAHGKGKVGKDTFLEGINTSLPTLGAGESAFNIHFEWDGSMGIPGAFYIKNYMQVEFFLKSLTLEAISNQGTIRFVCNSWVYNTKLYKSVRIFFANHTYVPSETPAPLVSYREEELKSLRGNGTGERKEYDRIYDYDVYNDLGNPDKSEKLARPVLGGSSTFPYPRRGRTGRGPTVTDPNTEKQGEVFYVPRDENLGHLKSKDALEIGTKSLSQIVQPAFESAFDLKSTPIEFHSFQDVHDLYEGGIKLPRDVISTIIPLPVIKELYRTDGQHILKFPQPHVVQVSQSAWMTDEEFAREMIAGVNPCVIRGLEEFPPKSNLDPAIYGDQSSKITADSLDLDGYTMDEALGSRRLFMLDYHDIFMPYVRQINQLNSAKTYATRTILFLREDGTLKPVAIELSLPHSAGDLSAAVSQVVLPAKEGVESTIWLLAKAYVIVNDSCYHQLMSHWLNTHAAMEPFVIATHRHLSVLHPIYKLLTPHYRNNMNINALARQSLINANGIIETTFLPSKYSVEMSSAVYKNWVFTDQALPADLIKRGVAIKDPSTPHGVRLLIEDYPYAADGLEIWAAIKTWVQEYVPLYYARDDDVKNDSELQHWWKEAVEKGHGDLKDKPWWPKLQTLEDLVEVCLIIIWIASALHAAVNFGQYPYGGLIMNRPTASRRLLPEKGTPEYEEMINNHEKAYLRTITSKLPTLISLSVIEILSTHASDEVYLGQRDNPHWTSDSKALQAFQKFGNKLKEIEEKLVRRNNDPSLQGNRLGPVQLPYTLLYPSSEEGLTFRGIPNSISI

[2] = target: T1, lipoxygenase (EC 1.13.11.12) Type 1 (soybean); test: spectrophotometric lipoxygenase inhibition assay with linoleic acid substrate; type: biochemical

Question: With `NC(=O)N1C(=O)/C(=C(\O)c2cccs2)c2cc(Cl)ccc21` [Tenidap] as the compound, how does the IC50 ([1]; read-out: IC50) read?
Answer: 23 µM

Question: For `O=c1cc(-c2ccccc2)oc2cc(O)c(O)c(O)c12` [Baicalein], which IC50 [1] is on record?
Answer: 40.9 µM

Question: `COc1c(C)c(-c2cc(O)c3c(c2O)C(=O)C(C)=CC3=O)c(OC)c2c1C(=O)C=CC2=O` [compound 1, 1′,4′-dihydroxy-1,4-dimethoxy-3,7′-dimethyl-[2,2′-binaphthalene]-5,5′,8,8′-tetraone] was tested. Which IC50 [2] did it give?
Answer: 37 µM
